Assay results taken from the NIST ThermoML archive (doi:10.1016/j.jct.2018.12.031).

Test: xn = mol fraction of the nth substance listed
Details: 100 kPa, Liquid; for speed of sound: Frequency=3 MHz, Linear variable-path acoustic interferometer; for mass density: Pycnometric method

C=C(C)C(=O)OCCCC [butyl 2-methyl-2-propenoate] + N#Cc1ccccc1
Details	mass density [kg/m3]	speed of sound [m/s]
293.15 K, x2 = 0	895.19	1241.7
293.15 K, x2 = 0.0721	900.73	1251.2
293.15 K, x2 = 0.1507	907.02	1262
293.15 K, x2 = 0.2142	912.32	1271.2
293.15 K, x2 = 0.2876	918.72	1282.1
293.15 K, x2 = 0.3511	924.51	1291.9
293.15 K, x2 = 0.4297	932.05	1304.6
293.15 K, x2 = 0.4985	939.01	1316.5
293.15 K, x2 = 0.5715	946.81	1330
293.15 K, x2 = 0.6465	955.32	1344.9
293.15 K, x2 = 0.7147	963.54	1359.7
293.15 K, x2 = 0.7784	971.67	1374.6
293.15 K, x2 = 0.8558	982.2	1394.4
293.15 K, x2 = 0.9326	993.43	1416.2
298.15 K, x2 = 0	890.48	1222.1
298.15 K, x2 = 0.0721	896.08	1231.8
298.15 K, x2 = 0.1507	902.44	1242.8
298.15 K, x2 = 0.2142	907.79	1252
298.15 K, x2 = 0.2876	914.25	1262.8
298.15 K, x2 = 0.3511	920.1	1272.6
298.15 K, x2 = 0.4297	927.7	1285.3
298.15 K, x2 = 0.4985	934.73	1297.1
298.15 K, x2 = 0.5715	942.6	1310.6
298.15 K, x2 = 0.6465	951.19	1325.7
298.15 K, x2 = 0.7147	959.49	1340.5
298.15 K, x2 = 0.7784	967.7	1355.6
298.15 K, x2 = 0.8558	978.33	1375.6
298.15 K, x2 = 0.9326	989.66	1397.6
303.15 K, x2 = 0	885.78	1202.4
303.15 K, x2 = 0.0721	891.44	1212.4
303.15 K, x2 = 0.1507	897.86	1223.6
303.15 K, x2 = 0.2142	903.26	1232.8
303.15 K, x2 = 0.2876	909.78	1243.7
303.15 K, x2 = 0.3511	915.69	1253.4
303.15 K, x2 = 0.4297	923.35	1266.3
303.15 K, x2 = 0.4985	930.45	1278.1
303.15 K, x2 = 0.5715	938.39	1291.6
303.15 K, x2 = 0.6465	947.06	1306.8
303.15 K, x2 = 0.7147	955.44	1321.9
303.15 K, x2 = 0.7784	963.73	1337.2
303.15 K, x2 = 0.8558	974.46	1357.7
303.15 K, x2 = 0.9326	985.89	1379.9
308.15 K, x2 = 0	881.07	1183
308.15 K, x2 = 0.0721	886.79	1193.2
308.15 K, x2 = 0.1507	893.27	1204.6
308.15 K, x2 = 0.2142	898.72	1213.9
308.15 K, x2 = 0.2876	905.3	1225
308.15 K, x2 = 0.3511	911.26	1234.8
308.15 K, x2 = 0.4297	919	1247.7
308.15 K, x2 = 0.4985	926.16	1259.6
308.15 K, x2 = 0.5715	934.18	1273.2
308.15 K, x2 = 0.6465	942.93	1288.5
308.15 K, x2 = 0.7147	951.39	1303.8
308.15 K, x2 = 0.7784	959.75	1319.5
308.15 K, x2 = 0.8558	970.58	1340.4
308.15 K, x2 = 0.9326	982.12	1362.9
313.15 K, x2 = 0	876.35	1163.8
313.15 K, x2 = 0.0721	882.13	1174.3
313.15 K, x2 = 0.1507	888.68	1185.8
313.15 K, x2 = 0.2142	894.18	1195.3
313.15 K, x2 = 0.2876	900.82	1206.5
313.15 K, x2 = 0.3511	906.83	1216.5
313.15 K, x2 = 0.4297	914.65	1229.5
313.15 K, x2 = 0.4985	921.87	1241.5
313.15 K, x2 = 0.5715	929.96	1255.2
313.15 K, x2 = 0.6465	938.79	1270.7
313.15 K, x2 = 0.7147	947.33	1286.3
313.15 K, x2 = 0.7784	955.77	1302.3
313.15 K, x2 = 0.8558	966.7	1323.7
313.15 K, x2 = 0.9326	978.35	1346.9
318.15 K, x2 = 0	871.64	1145.7
318.15 K, x2 = 0.0721	877.48	1156.5
318.15 K, x2 = 0.1507	884.09	1168.2
318.15 K, x2 = 0.2142	889.64	1177.8
318.15 K, x2 = 0.2876	896.34	1189.1
318.15 K, x2 = 0.3511	902.4	1199.1
318.15 K, x2 = 0.4297	910.29	1212.1
318.15 K, x2 = 0.4985	917.58	1224.2
318.15 K, x2 = 0.5715	925.74	1238
318.15 K, x2 = 0.6465	934.65	1253.7
318.15 K, x2 = 0.7147	943.27	1269.6
318.15 K, x2 = 0.7784	951.79	1285.9
318.15 K, x2 = 0.8558	962.82	1307.8
318.15 K, x2 = 0.9326	974.58	1331.5
